22 compounds from ChEMBL document CHEMBL5143595, “Expanding the structure-activity relationship of cytotoxic diphenyl macrocycles” (Bioorg Med Chem Lett, 2022) can be followed below.

For one data set, the system named is U-251. The data set is described as follows: Antiproliferative activity against human U-251 cells assessed as inhibition of cell growth at 10 uM incubated for 48 hrs by SRB assay relative to control. More on the design: scale not given: the % may be the effect or the level left. It counts as functional.
A further data set relates to HCT-15. The data set is described as follows: Antiproliferative activity against human HCT-15 cells assessed as inhibition of cell growth at 10 uM incubated for 48 hrs by SRB assay relative to control. The arrangement: scale not given: the % may be the effect or the level left. It counts as functional.
Another data set deals with MCF7. The data set is described as follows: Antiproliferative activity against human MCF7 cells assessed as inhibition of cell growth at 10 uM incubated for 48 hrs by SRB assay relative to control. More on the design: scale not given: the % may be the effect or the level left. It is filed as functional.
Another data set concerns SK-LU-1. The data set is described as follows: Antiproliferative activity against human SK-LU-1 cells assessed as inhibition of cell growth at 10 uM incubated for 48 hrs by SRB assay relative to control. It counts as functional. The arrangement: scale not given: the % may be the effect or the level left.
The subject of the next data set is PC-3. The data set is described as follows: Antiproliferative activity against human PC-3 cells assessed as inhibition of cell growth at 10 uM incubated for 48 hrs by SRB assay relative to control. It is filed as functional. More on the design: scale not given: the % may be the effect or the level left.
Data set [1] in a line: Antiproliferative activity against African green monkey COS-7 cells assessed as inhibition of cell growth at 10 uM incubated for 48 hrs by SRB assay relative to control. It is filed as toxicity, cell-based. To be noted: chlorocebus aethiops, read-out: Activity.
The subject of the next data set is K562. The data set is described as follows: Antiproliferative activity against human K562 cells assessed as inhibition of cell growth at 10 uM incubated for 48 hrs by SRB assay relative to control. It counts as functional. More on the design: scale not given: the % may be the effect or the level left.

As for `CCCCCCCCCCNC(=O)C(c1ccc(F)cc1)N1CCCCN(CC(=O)NC(C)(C)C)C(=O)c2cccc(c2)-c2cccc(c2)C1=O` (racemic), the Activity with U-251 was 19.3%; with HCT-15, 67.2%; in the data set with MCF7, 47.3%; with SK-LU-1, 31.8%; in the data set on PC-3, 15.1%; with K562 it was 64%. In addition, the inhibition at 48 h, 10 µM in data set [1] amounted to 24.3%.

As to `CCCCCCCCCCCCNC(=O)C(c1ccc([N+](=O)[O-])cc1)N1CCCCN(CC(=O)NC(C)(C)C)C(=O)c2cccc(c2)-c2cccc(c2)C1=O` (racemic), the Activity is 34.5% in the data set with U-251; 22.8% with HCT-15; 31.2% in the data set on MCF7; 45.2% with SK-LU-1; 17.1% in the data set on PC-3; 29% with K562. The inhibition at 48 h, 10 µM in data set [1] turned out to be 17.5%.

In the case of `CCCCCCCCCCCCNC(=O)C(c1ccc(OC)cc1)N1CCCCN(CC(=O)NC(C)(C)C)C(=O)c2cccc(c2)-c2cccc(c2)C1=O` (racemic), the Activity with U-251 is given as 50.1%; in the data set on HCT-15 it was 22%; in the data set on MCF7, 23.6%; in the data set with SK-LU-1, 37.8%; with PC-3, 46.2%; in the data set on K562 it was 56.1%. In addition, the inhibition at 48 h, 10 µM in data set [1] is 33%.

`CCCCCCCCCCNC(=O)C(c1ccoc1)N1CCCCN(CC(=O)NC(C)(C)C)C(=O)c2cccc(c2)-c2cccc(c2)C1=O` (racemic): the Activity in the data set with U-251 came out at 27.5%; in the data set on HCT-15 it was 38.5%; in the data set on MCF7 it was 29.5%; in the data set on SK-LU-1, 18.8%; in the data set on PC-3, 35%; in the data set with K562, 36.6%. Further, in data set [1], the inhibition at 48 h, 10 µM was 22.8%.

Regarding `CCCCCCCCCCCCNC(=O)C(c1cc(OC)c(OC)c(OC)c1)N1CCCCN(CC(=O)NC(C)(C)C)C(=O)c2cccc(c2)-c2cccc(c2)C1=O` (racemic), the Activity turned out to be 11.4% in the data set on U-251; 31.5% with HCT-15; 34.4% with SK-LU-1; 33.9% with PC-3; 24% with K562. For the same compound, in data set [1], the inhibition at 48 h, 10 µM turned out to be 25.6%.

On to `CCCCCCCCCCCCNC(=O)C(c1ccc(OC)cc1C)N1CCCCN(CC(=O)NC(C)(C)C)C(=O)c2cccc(c2)-c2cccc(c2)C1=O` (racemic), for which the Activity worked out at 23.1% in the data set on U-251, 28% with HCT-15, 29% in the data set on SK-LU-1 and 5.2% in the data set with K562. Further, in data set [1], the inhibition at 48 h, 10 µM stood at 31.3%.

`CCCCCCCCCCCCNC(=O)C(c1ccc(F)cc1)N1CCCCN(CC(=O)NC(C)(C)C)C(=O)c2cccc(c2)-c2cccc(c2)C1=O` (racemic): the Activity in the data set on U-251 was 76.9%; in the data set on HCT-15 it was 42.9%; with MCF7, 41.5%; with SK-LU-1 it was 18.8%; with PC-3 it was 21.3%; with K562 it was 59.6%. Further, in data set [1], the inhibition at 48 h, 10 µM was 40.8%.

As to `CCCCCCCCCCCNC(=O)CN1CCCCN(CC(=O)NC(C)(C)C)C(=O)c2cccc(c2)-c2cccc(c2)C1=O`, the Activity is recorded as 10.8% with U-251; 51% in the data set on HCT-15; 5.3% in the data set on MCF7; 23.2% in the data set on SK-LU-1; 44.4% with PC-3; 42% in the data set on K562. Besides, the inhibition at 48 h, 10 µM in data set [1] came to 28.1%.

Take `CCCCCCCCCCCCNC(=O)C(c1ccc(C(F)(F)F)cc1)N1CCCCN(CC(=O)NC(C)(C)C)C(=O)c2cccc(c2)-c2cccc(c2)C1=O` (racemic): the Activity with U-251 stood at 47.2%; with HCT-15, 30.3%; in the data set with MCF7, 75.3%; with SK-LU-1, 76.5%; with PC-3 it was 18.6%; in the data set on K562, 100%. Besides, the inhibition at 48 h, 10 µM in data set [1] was 38%.

Take `CCCCCCCCCCCCNC(=O)C(c1cc(C)ccc1F)N1CCCCN(CC(=O)NC(C)(C)C)C(=O)c2cccc(c2)-c2cccc(c2)C1=O` (racemic): the Activity was 15.7% in the data set with U-251; 31.7% in the data set with HCT-15; 15.2% with MCF7; 3.1% with SK-LU-1; 9.5% with PC-3; 29% in the data set with K562. Besides, in data set [1], the inhibition at 48 h, 10 µM turned out to be 20.2%.

With `CCCCCCCCCCNC(=O)CN1CCCCN(CC(=O)NC(C)(C)C)C(=O)c2cccc(c2)-c2cccc(c2)C1=O`, the Activity in the data set with U-251 was determined as 16.1%; in the data set with HCT-15, 65.5%; with MCF7, 72.1%; with SK-LU-1 it was 50.4%; in the data set with PC-3 it was 59.9%; with K562 it was 38%. For the same compound, the inhibition at 48 h, 10 µM in data set [1] came to 17.8%.

`CCCCCCCCCCCCNC(=O)C(c1ccccc1)N1CCCCN(CC(=O)NC(C)(C)C)C(=O)c2cccc(c2)-c2cccc(c2)C1=O` (racemic): the Activity in the data set on HCT-15 is given as 27.7%; in the data set on MCF7 it was 29.5%; with SK-LU-1, 28.5%; in the data set with PC-3, 32.6%; in the data set on K562, 41.3%. In addition, the inhibition at 48 h, 10 µM in data set [1] is 21.1%.

Take `CCCCCCCCCCCCNC(=O)C(c1ccc(SC)cc1)N1CCCCN(CC(=O)NC(C)(C)C)C(=O)c2cccc(c2)-c2cccc(c2)C1=O` (racemic): the Activity in the data set with U-251 stood at 20%; with HCT-15, 18.3%; in the data set on MCF7, 45%; in the data set with SK-LU-1, 45.6%; with PC-3 it was 28.5%; with K562 it was 34.9%. Moreover, in data set [1], the inhibition at 48 h, 10 µM came to 35.5%.

On to `CCCCCCCCCCCCNC(=O)C(c1ccc(C)cc1)N1CCCCN(CC(=O)NC(C)(C)C)C(=O)c2cccc(c2)-c2cccc(c2)C1=O` (racemic), for which the Activity turned out to be 48% in the data set with U-251; 19.9% in the data set with HCT-15; 4.8% in the data set on MCF7; 32.4% in the data set on SK-LU-1; 21.1% in the data set with PC-3; 40.7% in the data set on K562. In addition, the inhibition at 48 h, 10 µM in data set [1] stood at 34.8%.

Regarding `CCCCCCCCCCNC(=O)C(c1ccco1)N1CCCCN(CC(=O)NC(C)(C)C)C(=O)c2cccc(c2)-c2cccc(c2)C1=O` (racemic), the Activity in the data set with U-251 is given as 25.5%; with HCT-15, 26%; in the data set with MCF7, 25.7%; with SK-LU-1, 25.3%; with PC-3 it was 25.8%; with K562, 28%. Moreover, the inhibition at 48 h, 10 µM in data set [1] amounted to 21.6%.

`CCCCCCCCCCCCNC(=O)C(c1ccc(Cl)cc1)N1CCCCN(CC(=O)NC(C)(C)C)C(=O)c2cccc(c2)-c2cccc(c2)C1=O` (racemic): the Activity with U-251 stood at 71.3%; in the data set on HCT-15, 24.3%; in the data set on MCF7, 72.2%; with SK-LU-1 it was 52.3%; with PC-3, 14.4%; in the data set on K562, 42.6%. For the same compound, the inhibition at 48 h, 10 µM in data set [1] was determined as 42.2%.

`CCCCCCCCNC(=O)CN1CCCCN(CC(=O)NC(C)(C)C)C(=O)c2cccc(c2)-c2cccc(c2)C1=O`: the Activity in the data set with U-251 stood at 20.5%; with HCT-15, 26.7%; with MCF7 it was 31.7%; with SK-LU-1, 9.6%; in the data set on PC-3, 46.5%; in the data set with K562, 24.4%. The inhibition at 48 h, 10 µM in data set [1] was found to be 19.7%.

`CCCCCCNC(=O)CN1CCCCN(CC(=O)NC(C)(C)C)C(=O)c2cccc(c2)-c2cccc(c2)C1=O`: the Activity with U-251 turned out to be 58.5%; in the data set with HCT-15, 32.4%; in the data set on SK-LU-1 it was 74.9%; with PC-3 it was 19.3%; with K562, 60.1%. Further, the inhibition at 48 h, 10 µM in data set [1] stood at 40%.

`CCCCCCCCCCCCNC(=O)C(c1ccoc1)N1CCCCN(CC(=O)NC(C)(C)C)C(=O)c2cccc(c2)-c2cccc(c2)C1=O` (racemic): the Activity in the data set on U-251 is on record as 27.5%; in the data set on HCT-15, 34.3%; with MCF7, 66.1%; in the data set on SK-LU-1 it was 32.3%; with PC-3, 48.9%; in the data set on K562 it was 48.8%. In data set [1], the inhibition at 48 h, 10 µM was determined as 27.5%.

Consider `CCCCCCCCCCCCNC(=O)C(c1ccco1)N1CCCCN(CC(=O)NC(C)(C)C)C(=O)c2cccc(c2)-c2cccc(c2)C1=O` (racemic), for which the Activity in the data set on U-251 was found to be 21.9%; in the data set with HCT-15, 26.8%; with MCF7, 51.3%; in the data set on SK-LU-1, 34.9%; in the data set on PC-3 it was 13.5%; in the data set with K562, 19.8%. Besides, the inhibition at 48 h, 10 µM in data set [1] worked out at 35.8%.

Take `CCCCCCCCCCCCNC(=O)C(c1ccc(O)cc1OC)N1CCCCN(CC(=O)NC(C)(C)C)C(=O)c2cccc(c2)-c2cccc(c2)C1=O` (racemic): the Activity in the data set on U-251 amounted to 48.5%; in the data set with HCT-15, 27.3%; in the data set on MCF7, 38.9%; in the data set with SK-LU-1, 45.1%; with PC-3 it was 37.6%; in the data set with K562 it was 60.9%. The inhibition at 48 h, 10 µM in data set [1] was 26.1%.

For `CCCCCCCCCCNC(=O)CN1CCCCN(CC(=O)NC(C)(C)C)C(=O)c2cccc(c2)-c2ccc(O)c(c2)C1=O`, the Activity in the data set on U-251 is listed as 49.3%; in the data set with HCT-15 it was 28.6%; in the data set with MCF7 it was 27.1%; in the data set on SK-LU-1, 27.7%; in the data set with PC-3 it was 19.5%; in the data set with K562, 55.3%. The inhibition at 48 h, 10 µM in data set [1] came out at 41.8%.
